Assay results as given in patent publication US12371454B2, “Cyclic peptide compound having Kras inhibitory action” (priority 2019, dated 2025).
Positions of bridges follow the written chain, without caps; N, C: chain ends. Non-standard residues stand in square brackets, D forms with d. Residues, ends and D or L forms follow the SMILES beside them. *: point of attachment. hPhe(3-Cl-4-CF3) = N[C@@H](CCc1ccc(C(F)(F)F)c(Cl)c1)C(=O)O; hPhe(3-F,4-CF3) = N[C@@H](CCc1ccc(C(F)(F)F)c(F)c1)C(=O)O; NMePhe(4-CF3) = CN[C@@H](Cc1ccc(C(F)(F)F)cc1)C(=O)O; hPhe(4-CF3) = N[C@@H](CCc1ccc(C(F)(F)F)cc1)C(=O)O; NMeAla(4-thiazolyl) = CN[C@@H](Cc1cscn1)C(=O)O; NMePhe(3-CN) = CN[C@@H](Cc1cccc(C#N)c1)C(=O)O; NMeAbu(4,4,4-F3) = CN[C@@H](CC(F)(F)F)C(=O)O; NMePhe(4-Cl) = CN[C@@H](Cc1ccc(Cl)cc1)C(=O)O; NMePhe(4-Me) = CN[C@@H](Cc1ccc(C)cc1)C(=O)O; NMePhe(2-F) = CN[C@@H](Cc1ccccc1F)C(=O)O; NMeGly(cPent) = CN[C@H](C(=O)O)C1CCCC1; NMeCha = CN[C@@H](CC1CCCCC1)C(=O)O; NMeChg = CN[C@H](C(=O)O)C1CCCCC1; NMeF = CN[C@@H](Cc1ccccc1)C(=O)O; NMeI = CC[C@H](C)[C@H](NC)C(=O)O; N(CH2CH2)2CF2 = FC1(F)CCN(*)CC1; Cha = N[C@@H](CC1CCCCC1)C(=O)O; NMeD = CN[C@@H](CC(=O)O)C(=O)O; NMeL = CN[C@@H](CC(C)C)C(=O)O; NMeV = CN[C@H](C(=O)O)C(C)C; d(β3hA) = C[C@@H](N)CC(=O)O; NMeS = CN[C@@H](CO)C(=O)O; Morpholide = C1CN(*)CCO1; NMeA = CN[C@@H](C)C(=O)O; Piperidide = C1CCN(*)CC1; Pyrrolidide = C1CCN(*)C1; dNMeA = CN[C@H](C)C(=O)O; Ac5c = NC1(C(=O)O)CCCC1; Aze = O=C(O)[C@@H]1CCN1; βAla = NCCC(=O)O; Sar = CNCC(=O)O; Propyl = CCC*

Target: T1, Kras and SOS1 (biotin-tagged human Kras loaded with GDP, His-tagged human SOS1) (Homo sapiens, UniProt P01116, G12D)
T1 construct: made in house; host or cells: E. coli (stated for Kras only)
Test: Protein-protein interaction inhibition between Kras and SOS1 (KrasGl2D-SOS PPI) using AlphaScreen
Format: binding
Details: AlphaScreen; biotin-tagged human Kras loaded with GDP, His-tagged human SOS1; read-out: KRAS G12D-SOS PPI IC50
How it was run: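 Binding between SOS1 and Kras is detected as bead-proximity luminescence: illuminate Ni-conjugated donors (680 nm), collect 520-620 nm emission from streptavidin-conjugated acceptors; Kras carries biotin and GDP loaded after purification, SOS1 carries a His tag.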

T1 sequence (P01116 1-188 isoform P01116-2 G12D): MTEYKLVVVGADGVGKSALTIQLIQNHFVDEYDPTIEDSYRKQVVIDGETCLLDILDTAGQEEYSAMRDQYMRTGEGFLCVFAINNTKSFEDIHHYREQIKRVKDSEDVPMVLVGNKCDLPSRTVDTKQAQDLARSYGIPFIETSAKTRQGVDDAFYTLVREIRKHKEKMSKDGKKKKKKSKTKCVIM

Compound	IC50
CC[C@H](C)[C@@H]1NC(=O)[C@H](CC(C)C)N(C)C(=O)C[C@@H](C)NC(=O)[C@H](C(C)C)N(C)C(=O)C2(CCCC2)NC(=O)[C@@H]2CCCN2C(=O)[C@H](CCc2ccc(C(F)(F)F)c(Cl)c2)NC(=O)CN(C)C(=O)[C@H](Cc2cccc(C#N)c2)N(C)C(=O)CN(C)C(=O)CN(C)C1=O [Compound 975] (cyclo([Ac5c][NMeV][d(β3hA)][NMeL]I[Sar][Sar][NMePhe(3-CN)][Sar][hPhe(3-Cl-4-CF3)]P))	0.022 µM
CC[C@H](C)[C@@H]1NC(=O)[C@H](CC(C)C)N(C)C(=O)CCNC(=O)[C@H](C(C)C)N(C)C(=O)C2(CCCC2)NC(=O)[C@@H]2CCCN2C(=O)[C@H](CCc2ccc(C(F)(F)F)c(Cl)c2)NC(=O)CN(C)C(=O)[C@H](CC2CCCCC2)N(C)C(=O)CN(C)C(=O)CN(C)C1=O [Compound 979] (cyclo([Ac5c][NMeV][βAla][NMeL]I[Sar][Sar][NMeCha][Sar][hPhe(3-Cl-4-CF3)]P))	0.037 µM
CC[C@H](C)[C@@H]1NC(=O)[C@H](CC(F)(F)F)N(C)C(=O)C[C@@H](C(=O)N2CCOCC2)N(C)C(=O)[C@H](C2CCCCC2)N(C)C(=O)C2(CCCC2)NC(=O)[C@@H]2CCCN2C(=O)[C@H](CCc2ccc(C(F)(F)F)c(Cl)c2)NC(=O)CN(C)C(=O)[C@H](Cc2ccc(C(F)(F)F)cc2)N(C)C(=O)CN(C)C(=O)CN(C)C1=O [Compound 981] ([NMeAbu(4,4,4-F3)]I[Sar][Sar][NMePhe(4-CF3)][Sar][hPhe(3-Cl-4-CF3)]P[Ac5c][NMeChg][NMeD]-Morpholide; lactam N-11)	0.00037 µM
CC[C@H](C)[C@@H]1NC(=O)[C@H](CC(C)C)N(C)C(=O)C[C@@H](C(=O)N(C)C)N(C)C(=O)[C@H]([C@@H](C)CC)N(C)C(=O)[C@H](C(C)C)NC(=O)[C@H](Cc2cscn2)N(C)C(=O)[C@H](CCc2ccc(C(F)(F)F)c(Cl)c2)NC(=O)CN(C)C(=O)[C@H](Cc2ccc(C)cc2)N(C)C(=O)[C@@H]2CCN2C(=O)[C@H](C)N(C)C1=O [Compound 982] ([NMeL]I[NMeA][Aze][NMePhe(4-Me)][Sar][hPhe(3-Cl-4-CF3)][NMeAla(4-thiazolyl)]V[NMeI][NMeD]-NMe2; lactam N-11)	0.048 µM
CC[C@H](C)[C@@H]1NC(=O)[C@H](CC(C)C)N(C)C(=O)C[C@@H](C(=O)N2CCCCC2)N(C)C(=O)[C@H](C2CCCC2)N(C)C(=O)C2(CCCC2)NC(=O)[C@H](CC(=O)N2CCC(F)(F)CC2)N(C)C(=O)[C@H](CCc2ccc(C(F)(F)F)c(Cl)c2)NC(=O)CN(C)C(=O)[C@H](CC2CCCCC2)N(C)C(=O)[C@@H]2CCN2C(=O)[C@H](C)N(C)C1=O [Compound 984] ([NMeL]I[NMeA][Aze][NMeCha][Sar][hPhe(3-Cl-4-CF3)][NMeD](N(CH2CH2)2CF2)[Ac5c][NMeGly(cPent)][NMeD]-Piperidide; lactam N-11)	0.025 µM
CC(C)C[C@H]1C(=O)N[C@@H](CC2CCCCC2)C(=O)N(C)CC(=O)N(C)CC(=O)N(C)[C@@H](CC2CCCCC2)C(=O)N(C)CC(=O)N[C@@H](CCc2ccc(C(F)(F)F)c(Cl)c2)C(=O)N2CCC[C@H]2C(=O)NC2(CCCC2)C(=O)N(C)[C@@H](C(C)C)C(=O)N(C)[C@H](C(=O)N2CCCCC2)CC(=O)N1C [Compound 986] ([NMeL][Cha][Sar][Sar][NMeCha][Sar][hPhe(3-Cl-4-CF3)]P[Ac5c][NMeV][NMeD]-Piperidide; lactam N-11)	0.025 µM
CCCOC[C@H]1C(=O)N(C)CC(=O)N[C@@H](CCc2ccc(C(F)(F)F)c(F)c2)C(=O)N2CCC[C@H]2C(=O)NC2(CCCC2)C(=O)N(C)[C@@H](C2CCCC2)C(=O)N(C)[C@H](C(=O)N2CCCC2)CC(=O)N(C)[C@@H](CC(C)C)C(=O)N[C@@H]([C@@H](C)CC)C(=O)N(C)[C@@H](C)C(=O)N2CC[C@H]2C(=O)N1C [Compound 987] ([NMeL]I[NMeA][Aze][NMeS](Propyl)[Sar][hPhe(3-F,4-CF3)]P[Ac5c][NMeGly(cPent)][NMeD]-Pyrrolidide; lactam N-11)	0.00096 µM
CC[C@H](C)[C@@H]1NC(=O)[C@H](C)NC(=O)C[C@@H](C(=O)N2CCCC2)NC(=O)[C@H](CC(C)C)N(C)C(=O)[C@H](Cc2ccccc2)N(C)C(=O)[C@H](CC(C)C)NC(=O)[C@H](CCc2ccc(C(F)(F)F)cc2)NC(=O)CN(C)C(=O)[C@H](Cc2ccc(Cl)cc2)N(C)C(=O)CN(C)C(=O)CN(C)C1=O [Compound 989] (AI[Sar][Sar][NMePhe(4-Cl)][Sar][hPhe(4-CF3)]L[NMeF][NMeL]D-Pyrrolidide; lactam N-11)	0.034 µM
CC[C@H](C)[C@@H]1NC(=O)[C@H](C)N(C)C(=O)C[C@@H](C)NC(=O)[C@H](C2CCCC2)N(C)C(=O)C2(CCCC2)NC(=O)[C@@H]2CCCN2C(=O)[C@H](CCc2ccc(C(F)(F)F)c(Cl)c2)NC(=O)[C@@H](C)N(C)C(=O)[C@H](Cc2ccccc2F)N(C)C(=O)[C@@H]2CCN2C(=O)[C@H](C)N(C)C1=O [Compound 990] (cyclo([Ac5c][NMeGly(cPent)][d(β3hA)][NMeA]I[NMeA][Aze][NMePhe(2-F)][dNMeA][hPhe(3-Cl-4-CF3)]P))	0.083 µM
